Laboratory results reported in US11660298B1, “Preventing thermal trauma by pre-treatment with Icilin” (priority 2019, dated 2023).

Legend:
[1] = test system: Transient receptor potential cation channel subfamily M member 8 (TRPM8); experiment: TRPM8 expression levels in fibroblasts; assay type: cell-based, Human
Protocol: (§1) Human Foreskin Fibroblasts (HFF) (ATCC, Manassas, Va.) were cultured in Dulbecco's Modified Eagle Medium Nutrient Mixture F-12 with 10% Fetal Bovine Serum, 1% penicillin streptomycin. 0.05% Trypsin EDTA was used for subculture (Invitrogen, Grand Isl., N.Y.). Cells were incubated at 370 Celsius and 5% CO2, and grown in 96 well, T25 or T75 Corning Tissue Culture vessels. When cells became confluent, they were trypsinized using 0.05% trypsin/EDTA. Cells used for the various assays were plated at 0.2×10^6 cells/mL unless otherwise noted. Fibroblasts were selected due to their critical role in skin wound recovery. Fibroblasts were fluorescently imaged with a Nikon Eclipse TS100 Microscope (Nikon, Melville, N.Y.). An in vitro burn model was created to replicate the severity of a third-degree burn. Cells were plated in a Polystyrene 96 Well Plate (100 μL per well) then burned in a VWR Incubating Micro Plate Shaker (VWR, Bridgeport, N.J.) via its adjustable heat setting. Thermal trauma (burning) was determined to take place at 50° C. for a total of 7.5 minutes (FIG. 1b). This temperature represented cell viability >50% 24 hours after the thermal injury treatment. Temperature of plate was confirmed using a Fluke 63 Infrared Thermometer (Fluke, Phoenix, Ariz.). […]

[2] = test system: Human Foreskin Fibroblasts (HFF); experiment: Fibroblast viability in the in vitro burn model (MTS / trypan blue exclusion); assay type: cell-based; conditions: thermally challenged fibroblasts (50° C., 7.5 minutes), Icilin pre-treatment 0.0002-0.02 nM in DMSO, vs untreated burned fibroblasts, about 24 hours after burning
Protocol: as §1, with “[…] Proliferation was determined using the MTS assay. […] The 96-well” for “Temperature of”, “read to measure absorbance at 490 nm” for “confirmed”, “microplate reader (BioTek, Winooski, Vt.). Viability was determined by trypan blue exclusion assays.” for “Fluke 63 Infrared Thermometer (Fluke, Phoenix, Ariz.).”

Interleukin-6 (IL-6) = experiment: Indirect ELISA of IL-6 expression in fibroblasts; assay type: cell-based, Human
Protocol: (§2) Human Foreskin Fibroblasts (HFF) (ATCC, Manassas, Va.) were cultured in Dulbecco's Modified Eagle Medium Nutrient Mixture F-12 with 10% Fetal Bovine Serum, 1% penicillin streptomycin. 0.05% Trypsin EDTA was used for subculture (Invitrogen, Grand Isl., N.Y.). Cells were incubated at 370 Celsius and 5% CO2, and grown in 96 well, T25 or T75 Corning Tissue Culture vessels. When cells became confluent, they were trypsinized using 0.05% trypsin/EDTA. Cells used for the various assays were plated at 0.2×10^6 cells/mL unless otherwise noted. Fibroblasts were selected due to their critical role in skin wound recovery. Fibroblasts were fluorescently imaged with a Nikon Eclipse TS100 Microscope (Nikon, Melville, N.Y.). An in vitro burn model was created to replicate the severity of a third-degree burn. Cells were plated in a Polystyrene 96 Well Plate (100 μL per well) then burned in a VWR Incubating Micro Plate Shaker (VWR, Bridgeport, N.J.) via its adjustable heat setting. Thermal trauma (burning) was determined to take place at 50° C. for a total of 7.5 minutes (FIG. 1b). This temperature represented cell viability >50% 24 hours after the thermal injury treatment. Temperature of plate was confirmed using a Fluke 63 Infrared Thermometer (Fluke, Phoenix, Ariz.). […] The 96-well plate was read to measure absorbance at 405 nm in a microplate reader (BioTek, Winooski, Vt.).

Interleukin-8 (IL-8) = experiment: Indirect ELISA of IL-8 expression in fibroblasts; assay type: cell-based, Human; conditions: non-thermally challenged and thermally challenged fibroblasts, Icilin 0.0002-0.02 nM
Protocol: as §2

[3] = test system: Reactive Oxygen Species (ROS); experiment: ROS-Glo H2O2 assay of Reactive Oxygen Species in fibroblasts; assay type: cell-based, Human
Protocol: Human Foreskin Fibroblasts (HFF) (ATCC, Manassas, Va.) were cultured in Dulbecco's Modified Eagle Medium Nutrient Mixture F-12 with 10% Fetal Bovine Serum, 1% penicillin streptomycin. 0.05% Trypsin EDTA was used for subculture (Invitrogen, Grand Isl., N.Y.). Cells were incubated at 370 Celsius and 5% CO2, and grown in 96 well, T25 or T75 Corning Tissue Culture vessels. When cells became confluent, they were trypsinized using 0.05% trypsin/EDTA. Cells used for the various assays were plated at 0.2×10^6 cells/mL unless otherwise noted. Fibroblasts were selected due to their critical role in skin wound recovery. Fibroblasts were fluorescently imaged with a Nikon Eclipse TS100 Microscope (Nikon, Melville, N.Y.). An in vitro burn model was created to replicate the severity of a third-degree burn. Cells were plated in a Polystyrene 96 Well Plate (100 μL per well) then burned in a VWR Incubating Micro Plate Shaker (VWR, Bridgeport, N.J.) via its adjustable heat setting. Thermal trauma (burning) was determined to take place at 50° C. for a total of 7.5 minutes (FIG. 1b). This temperature represented cell viability >50% 24 hours after the thermal injury treatment. […] ROS was measured through ROS-GIo™ H2O2 Assay (Promega, Madison, Wis.). […] The well plate was then incubated at room temperature for 20 minutes then measured for luminescence (see FIG. 7).

Interleukin-1β (IL-1β) = experiment: Indirect ELISA of IL-1β expression in fibroblasts; assay type: cell-based, Human
Protocol: as §2

[4] = test system: Tumor Necrosis Factor-α (TNF-α); experiment: Indirect ELISA of TNF-α expression in fibroblasts; assay type: cell-based, Human
Protocol: as §2

TRPM8 = TRPM8 (Homo sapiens, UniProt Q7Z2W7); conditions: super-cooling chemical; comparison with menthol; cited from earlier work
[5] = non-thermally challenged fibroblasts, all Icilin concentrations

Chain of TRPM8 (Q7Z2W7 whole entry, species assumed): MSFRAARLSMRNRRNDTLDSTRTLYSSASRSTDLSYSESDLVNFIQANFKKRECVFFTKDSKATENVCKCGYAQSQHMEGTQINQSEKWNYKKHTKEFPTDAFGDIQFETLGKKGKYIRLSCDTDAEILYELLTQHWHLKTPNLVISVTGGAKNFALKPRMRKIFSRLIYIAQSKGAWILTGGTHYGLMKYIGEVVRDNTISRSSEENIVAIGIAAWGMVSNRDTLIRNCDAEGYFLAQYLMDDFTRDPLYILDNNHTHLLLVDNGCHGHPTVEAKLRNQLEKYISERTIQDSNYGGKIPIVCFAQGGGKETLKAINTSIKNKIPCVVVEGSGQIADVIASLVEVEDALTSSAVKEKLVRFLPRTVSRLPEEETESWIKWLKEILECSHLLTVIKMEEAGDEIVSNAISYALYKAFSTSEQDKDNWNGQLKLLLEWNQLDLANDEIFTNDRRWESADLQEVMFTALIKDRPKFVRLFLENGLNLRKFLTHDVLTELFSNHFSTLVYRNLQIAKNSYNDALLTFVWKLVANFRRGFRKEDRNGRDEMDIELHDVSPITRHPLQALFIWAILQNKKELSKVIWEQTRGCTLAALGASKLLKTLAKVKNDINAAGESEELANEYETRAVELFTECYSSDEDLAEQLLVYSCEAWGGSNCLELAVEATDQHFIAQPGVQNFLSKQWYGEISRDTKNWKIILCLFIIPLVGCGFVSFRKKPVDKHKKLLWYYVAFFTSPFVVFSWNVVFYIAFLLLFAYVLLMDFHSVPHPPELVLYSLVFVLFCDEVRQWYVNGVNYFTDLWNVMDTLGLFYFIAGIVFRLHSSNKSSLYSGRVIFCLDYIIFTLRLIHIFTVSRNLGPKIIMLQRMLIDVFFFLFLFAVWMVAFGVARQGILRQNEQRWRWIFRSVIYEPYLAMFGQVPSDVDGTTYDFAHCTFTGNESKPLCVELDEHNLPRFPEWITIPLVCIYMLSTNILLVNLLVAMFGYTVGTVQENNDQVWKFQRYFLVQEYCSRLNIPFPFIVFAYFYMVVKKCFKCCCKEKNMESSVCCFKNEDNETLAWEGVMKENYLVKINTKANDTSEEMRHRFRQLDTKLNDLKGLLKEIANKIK

O=C1NC(c2cccc([N+](=O)[O-])c2)=CCN1c1ccccc1O [Icilin]
TRPM8 expression [1, 5]: significantly increased
TRPM8 expression ([1]; thermally challenged fibroblasts, Icilin pre-treatment): increase in TRPM8 expression was maintained
fibroblast viability [2]: significantly higher than the untreated burned fibroblasts
IL-6 expression (Interleukin-6 (IL-6); non-thermally challenged fibroblasts, Icilin 0.0002-0.02 nM): increased IL-6 expression
IL-6 expression (Interleukin-6 (IL-6); thermally challenged fibroblasts, Icilin pre-treatment 0.0002-0.02 nM): significant decrease in IL-6 expression
IL-8 expression (Interleukin-8 (IL-8)): no noteworthy effect on IL-8 expression
ROS levels [3, 5]: significantly reduces ROS levels
ROS levels ([3]; thermally challenged fibroblasts, Icilin pre-treatment at 0.02 nM): essentially restore ROS levels of thermally challenged fibroblasts to their normal quantities
IL-1β expression (Interleukin-1β (IL-1β); non-thermally challenged fibroblasts, increasing concentrations of Icilin): IL-1β expression also increases
IL-1β levels compared with non-thermally challenged fibroblasts at the same Icilin concentration (Interleukin-1β (IL-1β); thermally challenged fibroblasts, Icilin pre-treatment, all concentrations): below the levels of the non-thermally challenged fibroblasts
TNF-α expression ([4]; fibroblasts without thermal treatment, increasing Icilin concentrations): steady increase in TNF-α expression
TNF-α expression ([4]; thermally challenged fibroblasts, Icilin pre-treatment, increasing concentrations): dropped significantly
potency relative to menthol (TRPM8): 200 times
